According to US7569605B2, “Methods of treating central nervous system disorders with a low dose combination of escitalopram and bupropion” (Forest Laboratories Holdings Limited, priority 2005, dated 2009):
Where “and” joins values, the source holds several entries; their conditions need not be identical. Equal entries are not always repeated. Marks after values point to notes of the source that are not given here.

Legend:
[1] = system: rat dorsal raphe nucleus (DRN) 5-HT neurons; assay: effects on rat dorsal raphe nucleus serotonin neurons (extracellular unitary recordings of firing); type: in vivo; conditions: anesthetized rats; two days treatment; escitalopram 10 mg/kg s.c. minipump, bupropion 30 mg/kg s.c. once daily
Experimental: Glass electrodes were lowered into the DRN 5-HT neurons were identified by their firing pattern and spike duration. […] NS). […] The experiments were carried out in male Sprague Dawley rats (Charles River, St. Constant, Québec, Canada) weighing between 300 to 325 g being kept under standard laboratory conditions (12:12 light-dark cycle with access to food and water ad libitum). Rats were anaesthetized with chloral hydrate (400 mg/kg, i.p.) and mounted in a stereotaxic apparatus (David Kopf Instruments, Tujunga, Calif., USA). […] Body temperature was maintained at 37° C. throughout the experiments utilizing a thermistor-controlled heating pad (Seabrook Medical Instruments, Inc., […], Canada). Prior to electrophysiological recording, rats were inserted with a catheter in a lateral tail vein for systemic injection of drugs. Rats received escitalopram oxalate administered through an osmotic minipump implanted subcutaneously, under halothane anaesthesia, which delivered 10 mg/kg/day. The recordings were carried out with the minipump in the animals. Bupropion hydrochloride was injected subcutaneously once a day at a dose of 30 mg/kg for 2 days with the last dose administered immediately prior to the electrophysiological experiments. […] Their impedance range was between 2 and 4 MΩ. […] Serotonin neurons were recorded with micropipettes lowered at +1.0 mm interaural on midline. […]

[2] = system: patients with major depressive disorder (MDD); assay: double-blind fixed dose comparison in major depressive disorder: efficacy (MADRS, HAMD, CGI, HAMA, QOL); type: in vivo, human; parameters: key to QOL: LS mean change from baseline to endpoint (LOCF): aggregated 5-point item scores; higher = greater enjoyment/satisfaction; HAMD17: LS mean change from baseline to endpoint (LOCF): scale not given here; conditions: escitalopram 4 mg, bupropion XL 150 mg, 8 weeks; for CGI % response: CGI-I response = 1 or 2; for HAMD17 % remission: HAMD17 remission <=7; for HAMD24 % response: HAMD24 response >=50% improvement; for MADRS % remission: MADRS remission <=12; for MADRS % response: MADRS response >=50% improvement; for CGI-I: LS mean (LOCF) / CGI-S: LS mean change from baseline to endpoint (LOCF) / HAMA: LS mean change from baseline to endpoint (LOCF) / HAMD17: LS mean change from baseline to endpoint (LOCF) / HAMD24 2° parameter, validated: LS mean change from baseline to endpoint (LOCF) / HAMD cognit disturb: LS mean change from baseline to endpoint (LOCF) / HAMD psychomotor: LS mean change from baseline to endpoint (LOCF) / MADRS 1° parameter, validated: LS mean change from baseline to endpoint (LOCF) / QOL: LS mean change from baseline to endpoint (LOCF): vs placebo
Experimental: This clinical study is conducted as a double-blind, randomized, fixed-dose, multicenter, parallel-group study in outpatients as shown in the Figure below: […] Approximately 135 patients are randomized to each of four treatment groups (placebo, escitalopram oxalate 4 mg, bupropion hydrochloride 150 mg, or escitalopram oxalate 4 mg/bupropion hydrochloride 150 mg), for a total of […]. A randomized, double-blind, fixed-dose, multicenter, parallel-group study is conducted in outpatients with MDD. […] Assignment to a treatment group is according to a computer-generated randomization schedule. […] The following primary efficacy assessments are performed at patient visits: […] The following secondary efficacy assessments are performed at patient visits: […] The following additional efficacy assessments are performed at patient visits: […] This scale rates the severity of the patient's current state of mental illness based on the investigator's clinical opinion with regard to a patient population with MDD. The patient is rated on a scale of 1 to 7 with 1 being normal and 7 being a patient who was among the most extremely ill. […] Based on the investigator's clinical opinion, this scale rates the total improvement or worsening in the patient's mental illness from his/her baseline assessment, regardless of whether or not the investigator considered it due to drug treatment. The patient is rated on a scale from 1 to 7 with 1 being very much improved and 7 being very much worse. […] Each item is scored on a 5 point scale with 0 reflecting no symptoms and 4 reflecting symptoms of maximum severity. […] Five-point item scores are aggregated, with higher scores indicative of greater enjoyment or satisfaction in each domain. Dosing: For the single-blind lead-in period, patients are supplied with placebo capsules. For the double-blind period, identical appearing capsules are supplied which contain placebo, escitalopram 4 mg, or bupropion extended-release 150 mg. […] All study medication is administered as a single daily dose throughout the study, preferably at the same time each evening starting on the day the medication is dispensed to the patient. Dosing is subsequently be switched to morning, if preferred. […] Patients are instructed to return all unused medication at each study visit. […] Patients are instructed to take two capsules daily as a single dose beginning on the day study medication is dispensed. […] Patients are assigned the lowest randomization number available at the site. Patients are instructed to take two capsules daily as a single dose beginning on the day study medication is dispensed. In accordance with their assigned treatment group, patients receive placebo, 4 mg escitalopram, 150 mg bupropion, or 4 mg escitalopram and 150 mg bupropion per day. […] Patients are instructed to continue taking two capsules daily as a single dose. In accordance with their assigned treatment group, patients receive placebo, 4 mg escitalopram, 150 bupropion, or 4 mg escitalopram and 150 mg bupropion per day. Efficacy: All efficacy analyses are based on the Intent-to-Treat (ITT) Population. […] All efficacy analyses are performed using both the Last Observation Carried Forward (LOCF) and the Observed Cases (OC) approach. In these analyses, the last observed value before a post-baseline missing value are carried forward to impute the missing value. […] For OC analyses, only observed values are used. […] The primary analysis is performed using the LOCF approach. Three primary comparisons between the escitalopram/bupropion combination group relative to each of the three other groups (placebo, escitalopram, or bupropion) are performed using an ANCOVA model with the treatment group and center as factors and the baseline MADRS score as a covariate. […] The analyses are carried out using a similar statistical model as used for the primary efficacy parameter. […]

[3] = system: patients with major depressive disorder (MDD); assay: Arizona Sexual Experiences Scale (ASEX) in the fixed dose comparison study; type: in vivo, human
Experimental: The study consists of a one-week single-blind placebo lead-in period followed by an 8 week double-blind treatment period. Approximately 135 patients are randomized to each of four treatment groups (placebo, escitalopram oxalate 4 mg, bupropion hydrochloride 150 mg, or escitalopram oxalate 4 mg/bupropion hydrochloride 150 mg), for a total of […].
A randomized, double-blind, fixed-dose, multicenter, parallel-group study is conducted in outpatients with MDD. Patients who meet eligibility criteria at Screening (Visit 1) enter a one-week, single-blind, lead-in period of placebo treatment. Patients who complete the lead-in period and continue to meet all entry criteria at Baseline (Visit 2) are randomly assigned to 8 weeks of double-blind treatment with either placebo, escitalopram 4 mg, bupropion XL 150 mg, or escitalopram 4 mg/bupropion XL 150 mg combination. Assignment to a treatment group is according to a computer-generated randomization schedule.
The Arizona Sexual Experiences Scale (ASEX) is completed at Visits 2 and 7, or early termination. Different versions are used for males and females. This 5 item patient-rated scale assesses sexual experiences with respect to libido, psychological and physiological arousal, ability to attain orgasm, and satisfaction with orgasm. Each item is scored on a 6 point scale with higher numbers indicating greater sexual dysfunction.

CC(NC(C)(C)C)C(=O)c1cccc(Cl)c1 (racemic) [bupropion, (±)-1-(3-chlorophenyl)-2-[(1,1-dimethylethyl)amino]-1-propanone]
spontaneous firing of DRN 5-HT neurons [1]: 1.54 Hz
CGI % response [2]: 46.6% and 46.62%
HAMD17 % remission [2]: 29.3% and 29.32%
HAMD24 % response [2]: 42.9% and 42.86%
MADRS % remission [2]: 37.6% and 37.59%
MADRS % response [2]: 43.6% and 43.61%
CGI-I: LS mean (LOCF) [2]: −0.11
CGI-S: LS mean change from baseline to endpoint (LOCF) [2]: −0.27
HAMA: LS mean change from baseline to endpoint (LOCF) [2]: −1.31
HAMD17: LS mean change from baseline to endpoint (LOCF) [2]: −0.75
HAMD24 2° parameter, validated: LS mean change from baseline to endpoint (LOCF) [2]: −1.10
HAMD cognit disturb: LS mean change from baseline to endpoint (LOCF) [2]: −0.21
HAMD psychomotor: LS mean change from baseline to endpoint (LOCF) [2]: −0.33
MADRS 1° parameter, validated: LS mean change from baseline to endpoint (LOCF) [2]: −1.08
QOL: LS mean change from baseline to endpoint (LOCF) [2]: 1.97
ASEX Change in total scores (improvement = reduction in score) ([3]; Females): −1.6571
ASEX Change in total scores (improvement = reduction in score) ([3]; Males): −1.4222

CN(C)CCC[C@@]1(c2ccc(F)cc2)OCc2cc(C#N)ccc21 [escitalopram, 1-[3-(dimethyl-amino)propyl]-1-(p-fluorophenyl)-5-phthalancarbonitrile]
spontaneous firing of DRN 5-HT neurons [1]: 0.35 Hz
CGI % response [2]: 56.5% and 56.49* %
HAMD17 % remission [2]: 29.8% and 29.77%
HAMD24 % response [2]: 46.6% and 46.56* %
MADRS % remission [2]: 35.9% and 35.88%
MADRS % response [2]: 47.3% and 47.33* %
CGI-I: LS mean (LOCF) [2]: 0.33*
CGI-S: LS mean change from baseline to endpoint (LOCF) [2]: −0.32*
HAMA: LS mean change from baseline to endpoint (LOCF) [2]: −1.91*
HAMD17: LS mean change from baseline to endpoint (LOCF) [2]: −0.75
HAMD24 2° parameter, validated: LS mean change from baseline to endpoint (LOCF) [2]: −1.15
HAMD cognit disturb: LS mean change from baseline to endpoint (LOCF) [2]: −0.29
HAMD psychomotor: LS mean change from baseline to endpoint (LOCF) [2]: −0.16
MADRS 1° parameter, validated: LS mean change from baseline to endpoint (LOCF) [2]: −2.51*
QOL: LS mean change from baseline to endpoint (LOCF) [2]: 2.25
ASEX Change in total scores (improvement = reduction in score) ([3]; Females): −1.0000
ASEX Change in total scores (improvement = reduction in score) ([3]; Males): +0.1667
